# Data reported in patent publication US20080009418A1, “Selective Inhibitors” (Alchemia LTD., priority 2004, published 2008).
# Key:
# [1] = molecular target: T1, Human Melanocortin (MC4) (Homo sapiens, UniProt P32245); test: Radioligand binding, human melanocortin MC4 membranes, FlashPlate, [125I]-NDP-αMSH; conditions: compound at 10 μM; for A4: inhibition of radioligand binding: human MC4 membranes
# T1 construct: purchased Perkin Elmer Biosignal
# Outline: (§1)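 Cloned human receptor membranes were coated onto FlashPlate wells and incubated with radioligand and compound (added from a 0.5 mM DMSO daughter plate) for 1 hour at room temperature in the dark. Scintillation counting gave percent inhibition, with DMSO defining total and reference ligand defining non-specific binding.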
# [2] = molecular target: T2, Human opioid (ORL1) (Homo sapiens, UniProt P41146); test: Radioligand binding, human opioid ORL1 membranes, FlashPlate, [125I]-Nociceptin; conditions: compound at 10 μM
# T2 construct: purchased Perkin Elmer Biosignal
# Outline: as §1
# [3] = molecular target: T3, Human Melanocortin (MC3) (Homo sapiens, UniProt P41968); test: Radioligand binding, human melanocortin MC3 membranes, FlashPlate, [125I]-NDP-αMSH; conditions: compound at 10 μM; for A3: inhibition of radioligand binding: human MC3 membranes
# T3 construct: purchased Perkin Elmer Biosignal
# Outline: as §1
# [4] = molecular target: T4, Human κ-Opioid (KOP) (Homo sapiens, UniProt P41145); test: Radioligand binding, human κ-opioid (KOP) membranes, filtration, [3H]-Diprenorphine; conditions: compound at 10 μM; for A2: inhibition of radioligand binding: human KOP membranes
# T4 construct: purchased Perkin Elmer Biosignal
# Outline: (§2)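 Filtration binding on cloned human receptor membranes (1 Unit/well), [125I]-Substance P for NK1 and [3H]-Diprenorphine for KOP, 1 h at room temperature. Filters PEI-presoaked, washed with cold 50 mM Tris-HCl pH 7.4, counted by scintillation; percent inhibition calculated, reference ligand defining non-specific binding.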
# [5] = molecular target: T5, Human δ-opioid (DOP) (Homo sapiens, UniProt P41143); test: Radioligand binding, human δ-opioid (DOP) membranes, FlashPlate, [3H]-Bremazocine; conditions: compound at 10 μM; for A1: inhibition of radioligand binding: human DOP membranes
# T5 construct: purchased Perkin Elmer Biosignal
# Outline: as §1
# [6] = molecular target: T6, Human melanin-concentrating hormone (MCH1) (Homo sapiens, UniProt Q99705); test: Radioligand binding, human melanin-concentrating hormone MCH1 membranes, FlashPlate, [125I]-S36057; conditions: compound at 10 μM; for A6: inhibition of radioligand binding: [125I]-S36057, human MCH1 membranes
# T6 construct: purchased Perkin Elmer Biosignal
# Outline: as §1
# [7] = molecular target: T7, Human neurokinin (NK1) (Homo sapiens, UniProt P25103); test: Radioligand binding, human neurokinin NK1 membranes, filtration, [125I]-Substance P; conditions: compound at 10 μM; for A8: inhibition of radioligand binding: human NK1 membranes
# T7 construct: purchased Perkin Elmer Biosignal
# Outline: as §2
# [8] = molecular target: T8, Mouse urotensin (mUR2) (Mus musculus, UniProt Q8VIH9); test: Radioligand binding, mouse urotensin mUR2 membranes, FlashPlate, [125I]-Urotensin II; conditions: compound at 10 μM; for A11: inhibition of radioligand binding: mouse mUR2 membranes
# T8 construct: purchased Perkin Elmer Biosignal
# T8 sequence (Q8VIH9 1-385): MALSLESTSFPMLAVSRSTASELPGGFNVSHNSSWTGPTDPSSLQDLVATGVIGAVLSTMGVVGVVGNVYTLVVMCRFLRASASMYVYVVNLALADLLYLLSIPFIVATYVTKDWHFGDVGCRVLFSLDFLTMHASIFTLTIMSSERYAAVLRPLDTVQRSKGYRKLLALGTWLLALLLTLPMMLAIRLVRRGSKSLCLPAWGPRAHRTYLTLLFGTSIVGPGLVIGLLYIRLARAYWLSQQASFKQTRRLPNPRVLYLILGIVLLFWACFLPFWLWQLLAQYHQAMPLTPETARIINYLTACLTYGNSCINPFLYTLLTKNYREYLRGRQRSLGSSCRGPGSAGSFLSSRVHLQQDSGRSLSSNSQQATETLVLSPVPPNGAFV
# Outline: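 Cloned mouse urotensin (mUR2) receptor membranes from Perkin Elmer Biosignal were immobilized in FlashPlate microplates using a proprietary coating. Each well got 19.5 μl buffer, then 0.5 μl of DMSO, reference ligand, or compound. Adding 5 μl of [125I]-Urotensin II, diluted to 5× final concentration in binding buffer, started binding. Plates were sealed with TopSeal-A and incubated 1 hour at room temperature in the dark. Wells were counted for 30 seconds each on a TopCount after a 60-second delay, and percentage inhibition was calculated.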
# [9] = molecular target: T9, Human melanocortin (MC5) (Homo sapiens, UniProt P33032); test: Radioligand binding, human melanocortin MC5 membranes, FlashPlate, [125I]-NDP-αMSH; conditions: compound at 10 μM; for A5: inhibition of radioligand binding: human MC5 membranes
# T9 construct: purchased Perkin Elmer Biosignal
# Outline: as §1
# [10] = molecular target: T10, Human μ-opioid (MOP) (Homo sapiens, UniProt P35372); test: Radioligand binding, human μ-opioid (MOP) membranes, FlashPlate, [3H]-Naloxone; conditions: compound at 10 μM; for A7: inhibition of radioligand binding: human MOP membranes
# T10 construct: purchased Perkin Elmer Biosignal
# Outline: as §1
# [11] = molecular target: T11, Human neuropeptide Y (NPY-Y1) (Homo sapiens, UniProt P25929); test: Radioligand binding, human neuropeptide Y NPY-Y1 membranes, FlashPlate, [125I]-PYY; conditions: compound at 10 μM
# T11 construct: purchased Perkin Elmer Biosignal
# T11 sequence (P25929 1-384): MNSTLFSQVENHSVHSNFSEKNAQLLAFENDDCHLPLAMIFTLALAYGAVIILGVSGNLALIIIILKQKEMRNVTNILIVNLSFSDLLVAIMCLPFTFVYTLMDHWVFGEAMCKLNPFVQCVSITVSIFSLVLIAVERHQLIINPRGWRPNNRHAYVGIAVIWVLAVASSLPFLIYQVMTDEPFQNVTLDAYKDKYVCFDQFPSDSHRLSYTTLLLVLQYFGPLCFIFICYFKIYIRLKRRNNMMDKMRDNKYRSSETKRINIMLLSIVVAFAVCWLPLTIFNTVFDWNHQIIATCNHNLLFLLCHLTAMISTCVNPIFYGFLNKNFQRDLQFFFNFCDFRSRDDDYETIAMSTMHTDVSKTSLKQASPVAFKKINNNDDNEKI
# Outline: as §1
# [12] = [125I]-Nociceptin, human ORL1 membranes
# [13] = [125I]-PYY, human NPY-Y1 membranes
# T10 sequence (P35372 whole entry): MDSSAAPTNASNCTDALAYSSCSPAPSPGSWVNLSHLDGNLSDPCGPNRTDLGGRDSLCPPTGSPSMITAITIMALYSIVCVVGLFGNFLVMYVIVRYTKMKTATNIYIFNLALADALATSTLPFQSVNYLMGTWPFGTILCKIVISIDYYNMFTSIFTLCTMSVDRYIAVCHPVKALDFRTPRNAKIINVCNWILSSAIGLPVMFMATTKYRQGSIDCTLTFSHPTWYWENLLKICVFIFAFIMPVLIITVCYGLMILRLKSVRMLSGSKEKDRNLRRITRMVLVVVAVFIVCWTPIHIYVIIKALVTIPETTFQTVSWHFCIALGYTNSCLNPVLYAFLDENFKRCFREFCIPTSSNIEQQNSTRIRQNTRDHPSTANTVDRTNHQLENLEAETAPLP
# T5 sequence (P41143 whole entry): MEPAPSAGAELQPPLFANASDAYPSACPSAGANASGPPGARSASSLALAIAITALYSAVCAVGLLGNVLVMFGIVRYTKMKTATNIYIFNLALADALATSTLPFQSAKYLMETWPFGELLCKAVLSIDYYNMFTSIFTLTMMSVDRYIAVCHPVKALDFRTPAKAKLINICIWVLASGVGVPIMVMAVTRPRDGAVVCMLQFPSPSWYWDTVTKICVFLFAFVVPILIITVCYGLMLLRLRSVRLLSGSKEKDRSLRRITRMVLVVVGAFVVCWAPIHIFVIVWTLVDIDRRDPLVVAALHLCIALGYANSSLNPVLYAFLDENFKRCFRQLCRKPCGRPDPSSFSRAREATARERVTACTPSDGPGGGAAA
# T3 sequence (P41968 whole entry): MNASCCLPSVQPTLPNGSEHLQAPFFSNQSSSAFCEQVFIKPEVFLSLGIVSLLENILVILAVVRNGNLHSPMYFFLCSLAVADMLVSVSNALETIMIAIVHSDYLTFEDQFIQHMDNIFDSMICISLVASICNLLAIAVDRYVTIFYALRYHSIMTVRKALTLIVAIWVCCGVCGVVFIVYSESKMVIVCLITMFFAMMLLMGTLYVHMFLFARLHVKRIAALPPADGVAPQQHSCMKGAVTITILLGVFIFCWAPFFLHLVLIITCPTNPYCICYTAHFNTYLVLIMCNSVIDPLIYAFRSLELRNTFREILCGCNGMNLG
# T6 sequence (Q99705 whole entry): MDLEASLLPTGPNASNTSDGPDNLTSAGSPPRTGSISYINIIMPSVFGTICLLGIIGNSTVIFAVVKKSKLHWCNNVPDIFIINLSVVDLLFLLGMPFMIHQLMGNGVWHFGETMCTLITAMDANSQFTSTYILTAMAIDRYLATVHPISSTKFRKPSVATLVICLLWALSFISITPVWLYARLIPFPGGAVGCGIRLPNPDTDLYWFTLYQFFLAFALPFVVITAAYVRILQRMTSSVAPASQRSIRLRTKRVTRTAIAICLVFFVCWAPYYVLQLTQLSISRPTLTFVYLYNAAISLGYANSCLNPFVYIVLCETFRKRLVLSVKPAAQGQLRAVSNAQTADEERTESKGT
# T7 sequence (P25103 whole entry): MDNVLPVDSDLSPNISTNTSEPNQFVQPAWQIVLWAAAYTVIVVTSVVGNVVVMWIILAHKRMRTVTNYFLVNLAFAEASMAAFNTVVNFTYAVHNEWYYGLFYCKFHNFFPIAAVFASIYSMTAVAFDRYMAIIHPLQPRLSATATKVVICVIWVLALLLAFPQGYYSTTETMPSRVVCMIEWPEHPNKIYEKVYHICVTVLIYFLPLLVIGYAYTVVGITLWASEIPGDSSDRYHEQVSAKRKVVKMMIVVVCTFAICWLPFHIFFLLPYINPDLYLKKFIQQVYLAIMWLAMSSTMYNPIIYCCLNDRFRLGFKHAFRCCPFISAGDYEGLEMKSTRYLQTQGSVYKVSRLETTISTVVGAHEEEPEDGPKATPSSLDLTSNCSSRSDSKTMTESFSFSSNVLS
# T2 sequence (P41146 whole entry): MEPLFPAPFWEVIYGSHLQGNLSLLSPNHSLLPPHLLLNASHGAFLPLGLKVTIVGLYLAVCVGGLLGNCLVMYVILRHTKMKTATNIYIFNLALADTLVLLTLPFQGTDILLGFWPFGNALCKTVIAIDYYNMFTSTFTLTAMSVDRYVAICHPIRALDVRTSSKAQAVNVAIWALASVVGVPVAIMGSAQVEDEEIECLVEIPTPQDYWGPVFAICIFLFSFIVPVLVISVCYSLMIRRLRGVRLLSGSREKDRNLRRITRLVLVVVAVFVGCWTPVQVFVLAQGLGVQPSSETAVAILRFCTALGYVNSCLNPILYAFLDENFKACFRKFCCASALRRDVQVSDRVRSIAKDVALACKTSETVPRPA
# T1 sequence (P32245 whole entry): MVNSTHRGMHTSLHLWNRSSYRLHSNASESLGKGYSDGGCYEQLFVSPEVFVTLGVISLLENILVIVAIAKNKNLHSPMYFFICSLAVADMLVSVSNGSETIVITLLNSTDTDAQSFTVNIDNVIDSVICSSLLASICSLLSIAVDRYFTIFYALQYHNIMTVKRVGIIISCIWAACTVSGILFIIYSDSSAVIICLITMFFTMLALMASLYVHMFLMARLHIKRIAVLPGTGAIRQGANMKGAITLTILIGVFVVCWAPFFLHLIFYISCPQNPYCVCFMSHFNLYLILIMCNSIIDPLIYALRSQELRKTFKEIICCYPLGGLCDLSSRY
# T9 sequence (P33032 whole entry): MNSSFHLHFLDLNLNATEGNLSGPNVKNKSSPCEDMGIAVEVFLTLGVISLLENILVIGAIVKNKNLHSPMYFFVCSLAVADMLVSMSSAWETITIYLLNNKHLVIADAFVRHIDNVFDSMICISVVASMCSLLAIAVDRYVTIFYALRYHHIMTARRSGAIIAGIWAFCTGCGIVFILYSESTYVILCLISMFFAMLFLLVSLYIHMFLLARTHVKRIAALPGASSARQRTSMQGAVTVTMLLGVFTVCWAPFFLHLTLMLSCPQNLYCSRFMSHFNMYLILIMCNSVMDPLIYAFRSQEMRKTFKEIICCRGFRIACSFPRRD
# T4 sequence (P41145 whole entry): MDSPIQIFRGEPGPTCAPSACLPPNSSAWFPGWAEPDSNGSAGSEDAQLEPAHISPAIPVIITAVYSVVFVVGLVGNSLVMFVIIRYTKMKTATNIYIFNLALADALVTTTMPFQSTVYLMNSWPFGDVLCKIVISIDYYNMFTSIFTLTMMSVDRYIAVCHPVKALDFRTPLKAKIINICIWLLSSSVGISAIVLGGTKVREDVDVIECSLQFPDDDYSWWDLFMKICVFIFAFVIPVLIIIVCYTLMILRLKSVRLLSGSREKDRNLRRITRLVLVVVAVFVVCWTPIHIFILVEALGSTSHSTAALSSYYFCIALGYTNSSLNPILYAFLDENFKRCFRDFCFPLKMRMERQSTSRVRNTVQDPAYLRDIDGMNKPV
compound,measurement,setting,value
N=C(N)NCCC(=O)NC1C(OCc2ccc(-c3ccccc3)cc2)OC(COCc2ccc3ccccc3c2)C(O)C1OCc1ccc(-c2ccccc2)cc1 (stereo not shown) [compound 414],A4: inhibition of radioligand binding,[1]; [125I]-NDP-αMSH,− (“−” indicates less than 50% inhibition at 10 μM)
same,A10: inhibition of radioligand binding,[2]; [12],− (“−” indicates less than 50% inhibition at 10 μM)
same,A3: inhibition of radioligand binding,[3]; [125I]-NDP-αMSH,− (“−” indicates less than 50% inhibition at 10 μM)
same,A2: inhibition of radioligand binding,[4]; [3H]-Diprenorphine,− (“−” indicates less than 50% inhibition at 10 μM)
same,A1: inhibition of radioligand binding,[5]; [3H]-Bremazocine,− (“−” indicates less than 50% inhibition at 10 μM)
same,A6: inhibition of radioligand binding,[6],− (“−” indicates less than 50% inhibition at 10 μM)
same,A8: inhibition of radioligand binding,[7]; [125I]-Substance P,+ (“+” indicates greater than 50% inhibition at 10 μM)
same,A11: inhibition of radioligand binding,[8]; [125I]-Urotensin II,− (“−” indicates less than 50% inhibition at 10 μM)
same,A5: inhibition of radioligand binding,[9]; [125I]-NDP-αMSH,+ (“+” indicates greater than 50% inhibition at 10 μM)
same,A7: inhibition of radioligand binding,[10]; [3H]-Naloxone,− (“−” indicates less than 50% inhibition at 10 μM)
same,A9: inhibition of radioligand binding,[11]; [13],− (“−” indicates less than 50% inhibition at 10 μM)
CO[C@H]1[C@H](O)[C@@H](COCc2ccc(Cl)cc2)OC(OCc2ccc(-c3ccccc3)cc2)[C@@H]1NC(=O)CCCN (stereo partly shown) [compound 64],A4 radioligand binding inhibition,[1]; human melanocortin MC4 membranes,− (“−” indicates less than 50% inhibition at 10 μM)
same,A10 radioligand binding inhibition,[2]; human ORL1 membranes,− (“−” indicates less than 50% inhibition at 10 μM)
same,A3 radioligand binding inhibition,[3]; human melanocortin MC3 membranes,+ (“+” indicates greater than 50% inhibition at 10 μM)
same,A2 radioligand binding inhibition,[4]; human κ-opioid (KOP) membranes,− (“−” indicates less than 50% inhibition at 10 μM)
same,A1 radioligand binding inhibition,[5]; human δ-opioid (DOP) membranes,− (“−” indicates less than 50% inhibition at 10 μM)
same,A6 radioligand binding inhibition,[6]; human MCH1 membranes,− (“−” indicates less than 50% inhibition at 10 μM)
same,A8 radioligand binding inhibition,[7]; human neurokinin NK1 membranes,+ (“+” indicates greater than 50% inhibition at 10 μM)
same,A11 radioligand binding inhibition,[8]; mouse urotensin mUR2 membranes,− (“−” indicates less than 50% inhibition at 10 μM)
same,A5 radioligand binding inhibition,[9]; human melanocortin MC5 membranes,+ (“+” indicates greater than 50% inhibition at 10 μM)
same,A7 radioligand binding inhibition,[10]; human μ-opioid (MOP) membranes,− (“−” indicates less than 50% inhibition at 10 μM)
same,A9 radioligand binding inhibition,[11]; human NPY-Y1 membranes,− (“−” indicates less than 50% inhibition at 10 μM)
COC[C@H]1OC(OCc2ccc3ccccc3c2)[C@H](NC(=O)CCCNC(=N)N)[C@@H](OCc2cccc(O)c2)[C@@H]1O (stereo partly shown) [compound 135],"A4 radioligand binding, percentage inhibition",[1]; [125I]-NDP-αMSH,− (“−” indicates less than 50% inhibition at 10 μM)
same,"A10 radioligand binding, percentage inhibition",[2]; [125I]-Nociceptin,− (“−” indicates less than 50% inhibition at 10 μM)
same,"A3 radioligand binding, percentage inhibition",[3]; [125I]-NDP-αMSH,− (“−” indicates less than 50% inhibition at 10 μM)
same,"A2 radioligand binding, percentage inhibition",[4]; [3H]-Diprenorphine,− (“−” indicates less than 50% inhibition at 10 μM)
same,"A1 radioligand binding, percentage inhibition",[5]; [3H]-Bremazocine,− (“−” indicates less than 50% inhibition at 10 μM)
same,"A6 radioligand binding, percentage inhibition",[6]; [125I]-S36057,− (“−” indicates less than 50% inhibition at 10 μM)
same,"A8 radioligand binding, percentage inhibition",[7]; [125I]-Substance P,− (“−” indicates less than 50% inhibition at 10 μM)
same,"A11 radioligand binding, percentage inhibition",[8]; [125I]-Urotensin II,− (“−” indicates less than 50% inhibition at 10 μM)
same,"A5 radioligand binding, percentage inhibition",[9]; [125I]-NDP-αMSH,− (“−” indicates less than 50% inhibition at 10 μM)
same,"A7 radioligand binding, percentage inhibition",[10]; [3H]-Naloxone,+ (“+” indicates greater than 50% inhibition at 10 μM)
same,"A9 radioligand binding, percentage inhibition",[11]; [125I]-PYY,− (“−” indicates less than 50% inhibition at 10 μM)
NCCC(=O)N[C@H]1C(OCc2ccc3ccccc3c2)O[C@H](COCc2ccc3ccccc3c2)[C@@H](O)[C@@H]1OCc1ccc2ccccc2c1 (stereo partly shown) [compound 443],A4: inhibition of radioligand binding,[1]; [125I]-NDP-αMSH,+ (“+” indicates greater than 50% inhibition at 10 μM)
same,A10: inhibition of radioligand binding,[2]; [12],+ (“+” indicates greater than 50% inhibition at 10 μM)
same,A3: inhibition of radioligand binding,[3]; [125I]-NDP-αMSH,+ (“+” indicates greater than 50% inhibition at 10 μM)
same,A2: inhibition of radioligand binding,[4]; [3H]-Diprenorphine,− (“−” indicates less than 50% inhibition at 10 μM)
same,A1: inhibition of radioligand binding,[5]; [3H]-Bremazocine,− (“−” indicates less than 50% inhibition at 10 μM)
same,A6: inhibition of radioligand binding,[6],+ (“+” indicates greater than 50% inhibition at 10 μM)
same,A8: inhibition of radioligand binding,[7]; [125I]-Substance P,+ (“+” indicates greater than 50% inhibition at 10 μM)
same,A11: inhibition of radioligand binding,[8]; [125I]-Urotensin II,− (“−” indicates less than 50% inhibition at 10 μM)
same,A5: inhibition of radioligand binding,[9]; [125I]-NDP-αMSH,+ (“+” indicates greater than 50% inhibition at 10 μM)
same,A7: inhibition of radioligand binding,[10]; [3H]-Naloxone,− (“−” indicates less than 50% inhibition at 10 μM)
same,A9: inhibition of radioligand binding,[11]; [13],− (“−” indicates less than 50% inhibition at 10 μM)
CC(=O)N[C@H]1C(NC(=O)CNC(=O)OC(C)(C)C)O[C@H](CO)[C@@H](O)[C@@H]1OCc1ccccc1 (stereo partly shown) [compound 359],"A4: inhibition of radioligand binding, human melanocortin (MC4)",[1]; [125I]-NDP-αMSH,− (“−” indicates less than 50% inhibition at 10 μM)
same,"A10: inhibition of radioligand binding, human opioid (ORL1)",[2]; [125I]-Nociceptin,− (“−” indicates less than 50% inhibition at 10 μM)
same,"A3: inhibition of radioligand binding, human melanocortin (MC3)",[3]; [125I]-NDP-αMSH,− (“−” indicates less than 50% inhibition at 10 μM)
same,"A2: inhibition of radioligand binding, human κ-opioid (KOP)",[4]; [3H]-Diprenorphine,− (“−” indicates less than 50% inhibition at 10 μM)
same,"A1: inhibition of radioligand binding, human δ-opioid (DOP)",[5]; [3H]-Bremazocine,− (“−” indicates less than 50% inhibition at 10 μM)
same,"A6: inhibition of radioligand binding, human melanin-concentrating hormone (MCH1)",[6]; [125I]-S36057,− (“−” indicates less than 50% inhibition at 10 μM)
same,"A8: inhibition of radioligand binding, human neurokinin (NK1)",[7]; [125I]-Substance P,+ (“+” indicates greater than 50% inhibition at 10 μM)
same,"A11: inhibition of radioligand binding, mouse urotensin (mUR2)",[8]; [125I]-Urotensin II,− (“−” indicates less than 50% inhibition at 10 μM)
same,"A5: inhibition of radioligand binding, human melanocortin (MC5)",[9]; [125I]-NDP-αMSH,− (“−” indicates less than 50% inhibition at 10 μM)
same,"A7: inhibition of radioligand binding, human μ-opioid (MOP)",[10]; [3H]-Naloxone,− (“−” indicates less than 50% inhibition at 10 μM)
same,"A9: inhibition of radioligand binding, human neuropeptide Y (NPY-Y1)",[11]; [125I]-PYY,+ (“+” indicates greater than 50% inhibition at 10 μM)
